Measurements taken from patent US11389466B2 (priority 2017, dated 2022).
Several values for one entry are separate records, joined by “and”; a condition that tells them apart may be missing. Identical values can stand only once. Like-named read-outs stand apart in the source and are kept apart here.

Columns and labels:
AFL lectin = AFL lectin (Aspergillus fumigatus, UniProt Q4WW81); test: biochemical; assay type: binding; conditions: for Stoichiometry: amount of ligand bound to a single protein; for β (β-factor, relative potency per ligand): β=(Kd)monovalent/[(Kd)multivalent×Valency], calculated from methylfucoside
[1] = system: Aspergillus fumigatus conidia (adhesion on pneumocytes A549); assay type: cell-based
[2] = Table 2, second batch of purified AFL protein

Chain of AFL lectin (Q4WW81 whole entry): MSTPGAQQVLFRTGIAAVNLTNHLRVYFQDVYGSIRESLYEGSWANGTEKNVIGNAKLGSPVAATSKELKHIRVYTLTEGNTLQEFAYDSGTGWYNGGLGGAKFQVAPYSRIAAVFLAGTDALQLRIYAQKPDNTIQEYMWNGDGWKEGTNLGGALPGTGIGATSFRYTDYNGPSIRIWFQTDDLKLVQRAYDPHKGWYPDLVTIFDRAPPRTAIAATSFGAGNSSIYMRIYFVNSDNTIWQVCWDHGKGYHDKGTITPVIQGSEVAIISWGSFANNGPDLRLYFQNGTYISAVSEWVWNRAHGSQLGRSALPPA

For `C[C@@H]1O[C@@H](OCc2cn(CCOCCOCCOCCn3cc(CO[C@@H]4O[C@@H](C)[C@@H](O)[C@@H](O)[C@@H]4O)nn3)nn2)[C@@H](O)[C@H](O)[C@@H]1O` [Compound 24], the Kd (AFL lectin) was 3800 ± 300 nM, the “−TΔS” value (AFL lectin; Table 1, first AFL batch) was 11 ± 0.72 kcal/mol and the “−ΔG” value (AFL lectin; Table 1, first AFL batch) was 7.41 ± 0.048 kcal/mol. The “−ΔH” value (AFL lectin; Table 1, first AFL batch) was 18.4 ± 0.72 kcal/mol, the Stoichiometry (AFL lectin; Table 1, first AFL batch) was 2.12 and 2.12 ± 0.03 and the “β (β-factor, relative potency per ligand)” value (AFL lectin) was 68. The “decrease of the adhesion of the conidia” value ([1]; 100 μM in fucose equivalent) was 37%.

With `C[C@@H]1O[C@@H](OCc2cn(CCOCCOCCOCCO)nn2)[C@@H](O)[C@H](O)[C@@H]1O` [Compound 33, reference compound] the Kd (AFL lectin) was 167000 nM, the “−TΔS” value (AFL lectin; Table 1, first AFL batch) was 9.08 ± 2.2 kcal/mol and the “−ΔG” value (AFL lectin; Table 1, first AFL batch) was 5.26 ± 0.24 kcal/mol. The “−ΔH” value (AFL lectin; Table 1, first AFL batch) was 14.3 ± 1.9 kcal/mol, the Stoichiometry (AFL lectin; Table 1, first AFL batch) was 4.0 ± 0.3 and the “β (β-factor, relative potency per ligand)” value (AFL lectin) was 3. For the same compound, the “anti-adhesive activity (in words)” value ([1]; concentrations of 1 and 10 μM in fucose equivalent) was “absence of anti-adhesive activity”.

For `CC1OC(OCCOCCOCCOCCOCc2cn(CC3OC4OC5C(Cn6cc(COCCOCCOCCOCCOC7OC(C)C(O)C(O)C7O)nn6)OC(OC6C(Cn7cc(COCCOCCOCCOCCOC8OC(C)C(O)C(O)C8O)nn7)OC(OC7C(Cn8cc(COCCOCCOCCOCCOC9OC(C)C(O)C(O)C9O)nn8)OC(OC8C(Cn9cc(COCCOCCOCCOCCOC%10OC(C)C(O)C(O)C%10O)nn9)OC(OC9C(Cn%10cc(COCCOCCOCCOCCOC%11OC(C)C(O)C(O)C%11O)nn%10)OC(OC3C(O)C4O)C(O)C9O)C(O)C8O)C(O)C7O)C(O)C6O)C(O)C5O)nn2)C(O)C(O)C1O` (stereo not drawn) [Compound 30], the Kd (AFL lectin; Table 1, first AFL batch) was 180 nM, the “−TΔS” value (AFL lectin; Table 1, first AFL batch) was 43.3 ± 1.9 kcal/mol and the “−ΔG” value (AFL lectin; Table 1, first AFL batch) was 9.18 ± 0.048 kcal/mol. For the same compound, the “−ΔH” value (AFL lectin; Table 1, first AFL batch) was 52.6 ± 1.9 kcal/mol, the Stoichiometry (AFL lectin; Table 1, first AFL batch) was 0.77 ± 0.04 and the Kd (AFL lectin; [2]) was 130 ± 10 nM. For the same compound, the “N (stoichiometry)” value (AFL lectin; [2]) was 0.95 ± 0.02, the “−TΔS” value (AFL lectin; [2]) was 40.49 ± 0.14 kcal/mol and the “−ΔG” value (AFL lectin; [2]) was 9.39 ± 0.072 kcal/mol. For the same compound, the “−ΔH” value (AFL lectin; [2]) was 49.93 ± 0.239 kcal/mol, the Kd (AFL lectin; first AFL batch) was 180 nM and the “Kd values (in words)” value (AFL lectin; first AFL batch) was “sub-micromolar range”. For the same compound, the “enthalpic contribution, times higher than the reference monovalent compound 33” value (AFL lectin; first AFL batch) was 3.7, the “increase of the −TΔS factor versus the reference monovalent compound” value (AFL lectin; first AFL batch) was 4.7 and the “β (β-factor, relative potency per ligand)” value (AFL lectin) was 479.

In the case of `CO[C@@H]1O[C@@H](C)[C@@H](O)[C@@H](O)[C@@H]1O` [αMeFuc, methylfucoside, reference compound], the “−TΔS” value (AFL lectin; Table 1, first AFL batch) is reported as 6.41 kcal/mol, the “−ΔG” value (AFL lectin; Table 1, first AFL batch) is reported as 4.04 kcal/mol and the “−ΔH” value (AFL lectin; Table 1, first AFL batch) is reported as 11.5 kcal/mol. The Stoichiometry (AFL lectin; Table 1, first AFL batch) was 5, the Kd (AFL lectin; Table 1, first AFL batch, read-out: Kd) was 517000 nM and the “N (stoichiometry)” value (AFL lectin; [2]) was 3.3 ± 0.42. For the same compound, the “−TΔS” value (AFL lectin; [2]) was 9.97 ± 1.48 kcal/mol, the “−ΔG” value (AFL lectin; [2]) was 5.4 ± 0.0048 kcal/mol and the “−ΔH” value (AFL lectin; [2]) was 15.4 ± 1.48 kcal/mol. The Kd (AFL lectin; Table 2, second batch of purified AFL protein, read-out: Kd) was 110000 nM.

`C[C@@H]1O[C@@H](OCc2cn(CCOCCOCCOCCOCCOCCOCCOCCOCCOCCOCCOCCn3cc(CO[C@@H]4O[C@@H](C)[C@@H](O)[C@@H](O)[C@@H]4O)nn3)nn2)[C@@H](O)[C@H](O)[C@@H]1O` [Compound 26] was tested, and the Kd (AFL lectin) was 550 nM, the “−TΔS” value (AFL lectin; Table 1, first AFL batch) was 8.6 ± 0.14 kcal/mol and the “−ΔG” value (AFL lectin; Table 1, first AFL batch) was 8.58 ± 0.22 kcal/mol. The “−ΔH” value (AFL lectin; Table 1, first AFL batch) was 17.7 ± 1.4 kcal/mol, the Stoichiometry (AFL lectin; Table 1, first AFL batch) was 2.35 and 2.35 ± 0.31 and the “β (β-factor, relative potency per ligand)” value (AFL lectin) was 470. The “residual adhesion of the conidia on the pneumocytes” value ([1]; 10 μM in fucose equivalent) was 76%.

For `CC1OC(OCc2cn(CCOCCOCCOCCSCC[Si]34O[Si]5(CCSCCOCCOCCOCCn6cc(COC7OC(C)C(O)C(O)C7O)nn6)O[Si]6(CCSCCOCCOCCOCCn7cc(COC8OC(C)C(O)C(O)C8O)nn7)O[Si](CCSCCOCCOCCOCCn7cc(COC8OC(C)C(O)C(O)C8O)nn7)(O3)O[Si]3(CCSCCOCCOCCOCCn7cc(COC8OC(C)C(O)C(O)C8O)nn7)O[Si](CCSCCOCCOCCOCCn7cc(COC8OC(C)C(O)C(O)C8O)nn7)(O4)O[Si](CCSCCOCCOCCOCCn4cc(COC7OC(C)C(O)C(O)C7O)nn4)(O5)O[Si](CCSCCOCCOCCOCCn4cc(COC5OC(C)C(O)C(O)C5O)nn4)(O6)O3)nn2)C(O)C(O)C1O` (stereo not drawn) [Compound 40], the Kd (AFL lectin) was 400 ± 70 nM, the “N (stoichiometry)” value (AFL lectin) was 0.84 ± 0.02 and the “−TΔS” value (AFL lectin) was 51.82 ± 4.04 kcal/mol. For the same compound, the “−ΔG” value (AFL lectin) was 8.75 ± 0.096 kcal/mol and the “−ΔH” value (AFL lectin) was 60.44 ± 4.06 kcal/mol.

`OC[C@H]1O[C@@H]2O[C@H]3[C@H](O)[C@@H](O)[C@@H](O[C@H]4[C@H](O)[C@@H](O)[C@@H](O[C@H]5[C@H](O)[C@@H](O)[C@@H](O[C@H]6[C@H](O)[C@@H](O)[C@@H](O[C@H]7[C@H](O)[C@@H](O)[C@@H](O[C@H]1[C@H](O)[C@H]2O)O[C@@H]7CO)O[C@@H]6CO)O[C@@H]5CO)O[C@@H]4CO)O[C@@H]3CO` [free α-cyclodextrine, α-cyclodextrine, reference compound] was tested, and the “affinity for the AFL lectin (in words)” value (AFL lectin) was “no affinity”.

`CC1OC(OCCOCCOCc2cn(CC3OC4OC5C(Cn6cc(COCCOCCOC7OC(C)C(O)C(O)C7O)nn6)OC(OC6C(Cn7cc(COCCOCCOC8OC(C)C(O)C(O)C8O)nn7)OC(OC7C(Cn8cc(COCCOCCOC9OC(C)C(O)C(O)C9O)nn8)OC(OC8C(Cn9cc(COCCOCCOC%10OC(C)C(O)C(O)C%10O)nn9)OC(OC9C(Cn%10cc(COCCOCCOC%11OC(C)C(O)C(O)C%11O)nn%10)OC(OC3C(O)C4O)C(O)C9O)C(O)C8O)C(O)C7O)C(O)C6O)C(O)C5O)nn2)C(O)C(O)C1O` (stereo not drawn) [Compound 29] was tested, and the Kd (AFL lectin; Table 1, first AFL batch) was 600 nM, the “−TΔS” value (AFL lectin; Table 1, first AFL batch) was 30 ± 0.14 kcal/mol and the “−ΔG” value (AFL lectin; Table 1, first AFL batch) was 8.48 ± 0.024 kcal/mol. For the same compound, the “−ΔH” value (AFL lectin; Table 1, first AFL batch) was 38.5 ± 0.24 kcal/mol, the Stoichiometry (AFL lectin; Table 1, first AFL batch) was 1.01 ± 0.02 and the Kd (AFL lectin; [2]) was 530 ± 40 nM. The “N (stoichiometry)” value (AFL lectin; [2]) was 1.20 ± 0.09, the “−TΔS” value (AFL lectin; [2]) was 32.53 ± 3.61 kcal/mol and the “−ΔG” value (AFL lectin; [2]) was 8.58 ± 0.048 kcal/mol. The “−ΔH” value (AFL lectin; [2]) was 41.06 ± 3.66 kcal/mol, the “Kd values (in words)” value (AFL lectin; first AFL batch) was “sub-micromolar range” and the “enthalpic contribution, times higher than the reference monovalent compound 33” value (AFL lectin; first AFL batch) was 2.7. For the same compound, the “increase of the −TΔS factor versus the reference monovalent compound” value (AFL lectin; first AFL batch) was 3.3, the “β (β-factor, relative potency per ligand)” value (AFL lectin) was 144 and the “formation of spore agglomerates (microscope observation)” value ([1]; A. fumigatus spores, compound 29 at 10 μM) was “formation of A. fumigatus spore agglomerates”.

For `CC1OC(OCc2cn(CC3OC4OC5C(Cn6cc(COC7OC(C)C(O)C(O)C7O)nn6)OC(OC6C(Cn7cc(COC8OC(C)C(O)C(O)C8O)nn7)OC(OC7C(Cn8cc(COC9OC(C)C(O)C(O)C9O)nn8)OC(OC8C(Cn9cc(COC%10OC(C)C(O)C(O)C%10O)nn9)OC(OC9C(Cn%10cc(COC%11OC(C)C(O)C(O)C%11O)nn%10)OC(OC3C(O)C4O)C(O)C9O)C(O)C8O)C(O)C7O)C(O)C6O)C(O)C5O)nn2)C(O)C(O)C1O` (stereo not drawn) [Compound 44], the Kd (AFL lectin; [2]) was 1940 ± 500 nM, the “N (stoichiometry)” value (AFL lectin; [2]) was 1.36 ± 0.01 and the “−TΔS” value (AFL lectin; [2]) was 21.6 ± 0.621 kcal/mol. For the same compound, the “−ΔG” value (AFL lectin; [2]) was 7.82 ± 0.17 kcal/mol and the “−ΔH” value (AFL lectin; [2]) was 29.37 ± 0.454 kcal/mol.
